Source: patent US20100317581A1, “Ipamorelin Diacetate Injection and Infusion Solutions” (Helsinn Therapeutics (U.S.), Inc., priority 2009, published 2010)
Converted amounts (≈) assume the structure as drawn. Structures can show the parent of a compound that is named as a salt. Where two headings read alike, the source gives them in different places. Where a SMILES comes first, the peptide text is derived from it. [ ]: non-standard residue; d: D form. d2Nal = N[C@H](Cc1ccc2ccccc2c1)C(=O)O; Aib = CC(C)(N)C(=O)O

Assay: Solubility as a function of pH / solubility in pure water
Type: physicochemical
Protocol: The solubility of ipamorelin free base at different pH values is shown graphically in FIG. 1. At pH values less than approximately 10, the drug is very soluble in aqueous media (>100 mg/ml).
This dramatic change in solubility around pH 10 is reflected in the solubilities of ipamorelin free base and its diacetate salt in pure water. The diacetate salt dissolves readily: it is capable of producing solutions greater than 100 mg/ml, with a final pH of about 7.5. The free base is much less soluble; only about 1.5 mg/ml was measured in a saturated solution, pH=9.83. However, solutions of much higher concentration can be achieved by simply adjusting the pH to around neutrality, using a solution of HCl or a similar acid.

solubility (pH 7.5, pure water, final pH of about 7.5, read-out: solubility in pure water) [mg/mL]	solubility (aqueous media, pH values less than approximately 10, read-out: solubility in aqueous media) [mg/mL]	solubility (pure water, saturated solution, pH=9.83, read-out: solubility in pure water (saturated solution)) [mg/mL]	Compound
> 100	–	–	CC(C)(N)C(=O)N[C@@H](Cc1c[nH]cn1)C(=O)N[C@H](Cc1ccc2ccccc2c1)C(=O)N[C@H](Cc1ccccc1)C(=O)N[C@@H](CCCCN)C(N)=O [diacetate salt] (H-[Aib]H[d2Nal][dF]K-NH2)
–	> 100	~1.5 (≈ 2110 µM)	CC(C)(N)C(=O)N[C@@H](Cc1c[nH]cn1)C(=O)N[C@H](Cc1ccc2ccccc2c1)C(=O)N[C@H](Cc1ccccc1)C(=O)N[C@@H](CCCCN)C(N)=O [ipamorelin free base, α-Methylalanine-L-histidine-D-β-(2-naphthyl)-alanine-D-phenylalanine-L-lysinamide] (H-[Aib]H[d2Nal][dF]K-NH2)
